From ChEMBL document CHEMBL2176988 (J Med Chem, 2012)
Calls of active or inactive are those of the source. The rule behind the calls is not given here.

Assays:
[1] = biological target: T1, Neuronal acetylcholine receptor; alpha4/beta2 (Homo sapiens, UniProt P17787+P43681); assay: Displacement of [3H]methylcarbamylcholine from alpha4beta2 nAChR; assay type: protein-complex assay
[2] = biological target: T2, 5-hydroxytryptamine receptor 3A (Homo sapiens, UniProt P46098); assay: Inhibition of human 5HT3 receptor
T2 sequence (P46098 whole entry): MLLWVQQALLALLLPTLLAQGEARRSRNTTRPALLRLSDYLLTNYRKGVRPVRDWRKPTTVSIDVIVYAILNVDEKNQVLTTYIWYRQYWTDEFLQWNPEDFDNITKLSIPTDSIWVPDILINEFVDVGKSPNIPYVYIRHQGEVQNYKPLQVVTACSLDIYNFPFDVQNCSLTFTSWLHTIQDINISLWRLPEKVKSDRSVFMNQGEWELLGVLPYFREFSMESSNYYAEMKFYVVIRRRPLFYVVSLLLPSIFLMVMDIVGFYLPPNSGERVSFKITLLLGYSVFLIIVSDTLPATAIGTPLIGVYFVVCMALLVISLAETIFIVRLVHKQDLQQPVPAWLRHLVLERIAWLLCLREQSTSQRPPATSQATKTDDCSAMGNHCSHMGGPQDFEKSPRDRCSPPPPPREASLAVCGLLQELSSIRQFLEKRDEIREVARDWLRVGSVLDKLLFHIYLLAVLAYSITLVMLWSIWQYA

Rattus norvegicus [3] = assay: Procognitive activity in Sprague-Dawley rat assessed as recognition index at 0.1 mg/kg, po administered QD for 3 days 30 mins prior to testing by novel object recognition test (reference value: 50%); assay type: functional
[4] = biological target: T3, 5-hydroxytryptamine receptor 3A (Mus musculus) (UniProt P23979); assay: Inhibition of mouse 5HT3 receptor at 10 uM
T3 sequence (whole entry): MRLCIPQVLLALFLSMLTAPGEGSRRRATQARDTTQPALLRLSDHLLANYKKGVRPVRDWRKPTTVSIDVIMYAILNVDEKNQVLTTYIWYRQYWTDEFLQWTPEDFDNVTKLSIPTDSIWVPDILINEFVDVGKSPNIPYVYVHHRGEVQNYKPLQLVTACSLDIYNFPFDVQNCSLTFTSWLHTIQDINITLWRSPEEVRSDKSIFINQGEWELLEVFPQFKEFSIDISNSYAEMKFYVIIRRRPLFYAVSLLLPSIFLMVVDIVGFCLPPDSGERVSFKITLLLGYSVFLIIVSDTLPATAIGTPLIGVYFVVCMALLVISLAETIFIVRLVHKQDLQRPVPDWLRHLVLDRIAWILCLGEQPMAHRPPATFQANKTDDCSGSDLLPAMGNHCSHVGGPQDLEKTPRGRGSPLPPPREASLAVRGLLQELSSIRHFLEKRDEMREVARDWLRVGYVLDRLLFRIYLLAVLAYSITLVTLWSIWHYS

[5] = biological target: T4, Neuronal acetylcholine receptor; alpha3/beta4 (Homo sapiens, UniProt P30926+P32297); assay: Displacement of [3H]epibatidine from human alpha3beta4 nAChR expressed in CHO cells after 2 hrs by liquid scintillation counting; assay type: cell-based
[6] = biological target: T1, Neuronal acetylcholine receptor; alpha4/beta2; assay: Agonist activity at alpha4beta2 nAChR in human SH-EP1 cells assessed as calcium flux by calcium4-based FLIPR assay relative to nicotine; assay type: functional, cell-based
[7] = biological target: Neuronal acetylcholine receptor subunit alpha-7 (Homo sapiens, UniProt P36544); assay: Displacement of [3H]epibatidine from human alpha7 nAChR expressed in CHO cells after 2 hrs by liquid scintillation counting; assay type: cell-based
[8] = biological target: Neuronal acetylcholine receptor; alpha4/beta2 (Rattus norvegicus, UniProt P09483+P12390); assay: Displacement of [3H]epibatidine from alpha4beta2 nAChR in Sprague-Dawley rat cortex after 2 hrs by liquid scintillation counting
[9] = biological target: T5, 5-hydroxytryptamine receptor 3A (Homo sapiens) (UniProt P46098); assay: Inhibition of human 5HT3 receptor at 10 uM
T5 sequence (whole entry): T2 sequence (P46098 whole entry)

[10] = Agonist activity at ganglion nAChR; assay type: functional
Cytochrome P450 2D6 = Cytochrome P450 2D6 (Homo sapiens, UniProt P10635); assay: Inhibition of CYP2D6; assay type: ADME
[11] = biological target: T1, Neuronal acetylcholine receptor; alpha4/beta2; assay: Agonist activity at alpha4beta2 nAChR in human SH-EP1 cells assessed as calcium flux by calcium4-based FLIPR assay; assay type: functional, cell-based
Rattus norvegicus [12] = assay: Procognitive activity in Sprague-Dawley rat assessed as increase in working memory at 0.1 to 0.3 mg/kg, po administered QD for 3 days 30 mins prior to testing by novel object recognition test; assay type: functional, organism-based
[13] = biological target: T1, Neuronal acetylcholine receptor; alpha4/beta2; assay: Displacement of [3H]nicotine from alpha4beta2 nAChR in human SH-EP1 cells after 2 hrs by liquid scintillation assay; assay type: cell-based
hERG (KCNH2) = hERG (KCNH2) (Homo sapiens, UniProt Q12809); assay: Inhibition of human ERG at 10 uM
[14] = biological target: Acetylcholine receptor; alpha1/beta1/delta/gamma (Homo sapiens) (UniProt P02708+P07510+P11230+Q07001); assay: Agonist activity at alpha1beta1gammadelta nAChR; assay type: functional
[15] = biological target: T4, Neuronal acetylcholine receptor; alpha3/beta4; assay: Agonist activity at human alpha3beta4 nAChR expressed in CHO cells assessed as calcium flux by calcium4-based FLIPR assay; assay type: functional, cell-based
[16] = biological target: T4, Neuronal acetylcholine receptor; alpha3/beta4; assay: Agonist activity at human alpha3beta4 nAChR expressed in CHO cells assessed as calcium flux by calcium4-based FLIPR assay relative to nicotine; assay type: functional, cell-based
[17] = biological target: T5, 5-hydroxytryptamine receptor 3A (Homo sapiens); assay: Inhibition of 5HT3 receptor at 10 uM
[18] = biological target: T1, Neuronal acetylcholine receptor; alpha4/beta2; assay: Partial agonist activity at alpha4beta2 nAChR in human SH-EP1 cells assessed as calcium flux by calcium4-based FLIPR assay; assay type: functional, cell-based
Rattus norvegicus [19] = assay: Procognitive activity in Sprague-Dawley rat assessed as increase in working memory at 0.3 to 3 mg/kg, po administered QD for 3 days 30 mins prior to testing by novel object recognition test; assay type: functional, organism-based
Rattus norvegicus [20] = assay: Procognitive activity in Sprague-Dawley rat assessed as increase in working memory at 1 mg/kg, po administered QD for 3 days 30 mins prior to testing by novel object recognition test (reference value: 51%); assay type: functional
[21] = Inhibition of adrenergic alpha2 receptor at 10 uM
[22] = biological target: T1, Neuronal acetylcholine receptor; alpha4/beta2; assay: Partial agonist activity at alpha4beta2 nAChR in human SH-EP1 cells assessed as calcium flux by calcium4-based FLIPR assay relative to nicotine; assay type: functional, cell-based
[23] = biological target: T1, Neuronal acetylcholine receptor; alpha4/beta2; assay: Binding affinity to alpha4beta2 nAChR; assay type: protein-complex assay
[24] = biological target: T1, Neuronal acetylcholine receptor; alpha4/beta2; assay: Binding affinity to human alpha4beta2 nAChR expressed in xenopus oocyte
[25] = biological target: T4, Neuronal acetylcholine receptor; alpha3/beta4; assay: Displacement of [3H]epibatidine from alpha3beta4 nAChR in human SH-SY5Y cells after 2 hrs by liquid scintillation counting; assay type: cell-based
[26] = biological target: T1, Neuronal acetylcholine receptor; alpha4/beta2; assay: Apparent antagonist activity at alpha4beta2 nAChR in human SH-EP1 cells assessed as inhibition of nicotine-induced calcium flux by calcium4-based FLIPR assay; assay type: functional, cell-based
[27] = biological target: T1, Neuronal acetylcholine receptor; alpha4/beta2; assay: Apparent antagonist activity at alpha4beta2 nAChR in human SH-EP1 cells assessed as inhibition of nicotine-induced calcium flux by calcium4-based FLIPR assay relative to control; assay type: functional, cell-based

T4 sequence (P30926 whole entry): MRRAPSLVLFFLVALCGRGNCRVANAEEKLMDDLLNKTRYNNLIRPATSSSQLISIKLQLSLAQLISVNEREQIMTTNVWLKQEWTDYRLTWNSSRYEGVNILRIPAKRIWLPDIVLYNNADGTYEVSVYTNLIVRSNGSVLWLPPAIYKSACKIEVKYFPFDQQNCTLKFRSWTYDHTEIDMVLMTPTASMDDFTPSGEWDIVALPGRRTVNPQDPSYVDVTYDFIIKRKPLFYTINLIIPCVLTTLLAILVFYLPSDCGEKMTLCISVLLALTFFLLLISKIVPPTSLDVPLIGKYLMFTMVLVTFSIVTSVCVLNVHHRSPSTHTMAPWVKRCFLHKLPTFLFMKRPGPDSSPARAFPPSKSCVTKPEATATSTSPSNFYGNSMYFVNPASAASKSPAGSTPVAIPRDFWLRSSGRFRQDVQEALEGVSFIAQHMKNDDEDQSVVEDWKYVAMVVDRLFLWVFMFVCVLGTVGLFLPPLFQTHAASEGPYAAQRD
T4 sequence (P32297 whole entry): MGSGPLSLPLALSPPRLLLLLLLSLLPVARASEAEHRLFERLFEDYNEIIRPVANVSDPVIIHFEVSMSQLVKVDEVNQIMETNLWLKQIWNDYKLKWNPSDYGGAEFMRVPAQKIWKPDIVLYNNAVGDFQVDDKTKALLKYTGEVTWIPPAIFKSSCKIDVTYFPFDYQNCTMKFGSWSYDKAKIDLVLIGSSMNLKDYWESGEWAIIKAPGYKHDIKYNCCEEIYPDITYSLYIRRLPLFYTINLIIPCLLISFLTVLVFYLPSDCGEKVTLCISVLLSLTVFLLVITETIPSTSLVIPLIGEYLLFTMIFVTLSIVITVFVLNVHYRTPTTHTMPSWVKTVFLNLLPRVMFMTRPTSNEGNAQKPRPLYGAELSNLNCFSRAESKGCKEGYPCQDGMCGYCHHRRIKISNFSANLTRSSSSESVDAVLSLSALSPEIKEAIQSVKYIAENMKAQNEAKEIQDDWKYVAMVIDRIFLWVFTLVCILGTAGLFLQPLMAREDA
Chain of Neuronal acetylcholine receptor subunit alpha-7 (P36544 whole entry): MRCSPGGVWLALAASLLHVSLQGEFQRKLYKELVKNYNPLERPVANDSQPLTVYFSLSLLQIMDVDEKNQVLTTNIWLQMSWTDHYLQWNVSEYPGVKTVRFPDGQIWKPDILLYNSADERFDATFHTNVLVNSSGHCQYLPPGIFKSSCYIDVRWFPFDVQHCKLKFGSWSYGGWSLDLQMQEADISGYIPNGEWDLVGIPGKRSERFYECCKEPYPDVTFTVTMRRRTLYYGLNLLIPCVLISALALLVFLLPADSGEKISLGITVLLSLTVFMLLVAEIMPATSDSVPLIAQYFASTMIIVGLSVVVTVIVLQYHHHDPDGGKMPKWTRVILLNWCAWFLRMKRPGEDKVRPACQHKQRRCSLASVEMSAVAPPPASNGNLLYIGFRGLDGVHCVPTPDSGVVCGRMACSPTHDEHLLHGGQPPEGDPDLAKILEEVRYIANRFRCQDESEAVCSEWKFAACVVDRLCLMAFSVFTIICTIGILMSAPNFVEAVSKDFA
T1 sequence (P17787 whole entry): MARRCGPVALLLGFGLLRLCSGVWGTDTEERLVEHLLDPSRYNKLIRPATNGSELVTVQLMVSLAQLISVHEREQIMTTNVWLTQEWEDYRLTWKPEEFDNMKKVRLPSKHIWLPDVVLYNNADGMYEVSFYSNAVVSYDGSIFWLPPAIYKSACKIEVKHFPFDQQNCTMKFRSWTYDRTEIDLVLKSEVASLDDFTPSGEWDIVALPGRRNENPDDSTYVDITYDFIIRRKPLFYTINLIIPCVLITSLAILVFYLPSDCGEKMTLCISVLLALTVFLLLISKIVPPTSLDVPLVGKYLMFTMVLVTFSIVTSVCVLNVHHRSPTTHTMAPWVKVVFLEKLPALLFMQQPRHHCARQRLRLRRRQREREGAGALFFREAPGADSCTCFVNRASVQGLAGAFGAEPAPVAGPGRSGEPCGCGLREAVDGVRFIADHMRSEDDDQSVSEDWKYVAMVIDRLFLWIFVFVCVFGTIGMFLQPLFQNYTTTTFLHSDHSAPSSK
T1 sequence (P43681 whole entry): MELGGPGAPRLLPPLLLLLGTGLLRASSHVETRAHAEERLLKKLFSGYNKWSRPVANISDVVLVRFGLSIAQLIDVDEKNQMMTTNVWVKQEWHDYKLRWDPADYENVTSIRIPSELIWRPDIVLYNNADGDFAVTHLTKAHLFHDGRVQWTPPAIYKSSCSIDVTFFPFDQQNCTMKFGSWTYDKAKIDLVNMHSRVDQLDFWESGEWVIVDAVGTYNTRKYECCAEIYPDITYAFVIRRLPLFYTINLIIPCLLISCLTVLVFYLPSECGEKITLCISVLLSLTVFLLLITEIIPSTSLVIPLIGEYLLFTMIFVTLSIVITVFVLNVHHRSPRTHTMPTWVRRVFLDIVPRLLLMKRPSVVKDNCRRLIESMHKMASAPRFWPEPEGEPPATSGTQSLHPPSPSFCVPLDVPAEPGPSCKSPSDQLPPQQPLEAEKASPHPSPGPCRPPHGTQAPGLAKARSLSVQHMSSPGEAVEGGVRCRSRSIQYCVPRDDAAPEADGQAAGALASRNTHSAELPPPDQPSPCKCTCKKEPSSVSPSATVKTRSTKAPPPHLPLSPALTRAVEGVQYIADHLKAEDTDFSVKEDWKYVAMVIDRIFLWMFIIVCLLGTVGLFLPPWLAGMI
Chain of Neuronal acetylcholine receptor; alpha4/beta2 (Rattus norvegicus, UniProt P09483+P12390) (P09483 whole entry): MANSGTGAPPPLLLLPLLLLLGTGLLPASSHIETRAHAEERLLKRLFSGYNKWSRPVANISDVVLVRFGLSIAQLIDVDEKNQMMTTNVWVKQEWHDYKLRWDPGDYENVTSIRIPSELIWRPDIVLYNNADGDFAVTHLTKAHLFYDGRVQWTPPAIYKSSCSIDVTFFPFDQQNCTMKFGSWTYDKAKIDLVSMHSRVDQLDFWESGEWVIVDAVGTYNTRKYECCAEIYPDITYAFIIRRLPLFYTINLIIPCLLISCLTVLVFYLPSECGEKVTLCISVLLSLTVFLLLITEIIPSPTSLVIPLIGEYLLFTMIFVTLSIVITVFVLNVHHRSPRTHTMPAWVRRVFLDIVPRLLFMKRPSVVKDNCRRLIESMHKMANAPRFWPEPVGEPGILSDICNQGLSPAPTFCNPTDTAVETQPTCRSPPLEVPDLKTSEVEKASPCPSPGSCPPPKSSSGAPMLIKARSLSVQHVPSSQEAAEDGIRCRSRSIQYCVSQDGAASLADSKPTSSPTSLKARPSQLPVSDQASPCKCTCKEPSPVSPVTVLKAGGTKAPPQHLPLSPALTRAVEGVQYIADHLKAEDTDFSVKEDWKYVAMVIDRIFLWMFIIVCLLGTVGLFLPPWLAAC
Chain of Neuronal acetylcholine receptor; alpha4/beta2 (Rattus norvegicus, UniProt P09483+P12390) (P12390 whole entry): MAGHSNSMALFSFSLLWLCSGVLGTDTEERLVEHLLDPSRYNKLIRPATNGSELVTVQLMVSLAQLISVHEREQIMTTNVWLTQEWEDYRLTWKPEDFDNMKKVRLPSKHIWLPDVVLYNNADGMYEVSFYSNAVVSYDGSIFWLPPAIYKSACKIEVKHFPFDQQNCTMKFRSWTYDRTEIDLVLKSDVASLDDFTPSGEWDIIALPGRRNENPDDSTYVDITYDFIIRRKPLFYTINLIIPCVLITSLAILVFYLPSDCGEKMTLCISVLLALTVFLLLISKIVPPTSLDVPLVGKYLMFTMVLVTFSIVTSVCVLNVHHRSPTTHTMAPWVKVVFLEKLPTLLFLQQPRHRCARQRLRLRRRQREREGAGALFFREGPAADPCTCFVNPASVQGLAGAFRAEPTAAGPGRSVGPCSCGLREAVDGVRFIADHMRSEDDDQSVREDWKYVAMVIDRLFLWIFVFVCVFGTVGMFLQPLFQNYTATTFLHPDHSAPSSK
Chain of Cytochrome P450 2D6 (P10635 whole entry): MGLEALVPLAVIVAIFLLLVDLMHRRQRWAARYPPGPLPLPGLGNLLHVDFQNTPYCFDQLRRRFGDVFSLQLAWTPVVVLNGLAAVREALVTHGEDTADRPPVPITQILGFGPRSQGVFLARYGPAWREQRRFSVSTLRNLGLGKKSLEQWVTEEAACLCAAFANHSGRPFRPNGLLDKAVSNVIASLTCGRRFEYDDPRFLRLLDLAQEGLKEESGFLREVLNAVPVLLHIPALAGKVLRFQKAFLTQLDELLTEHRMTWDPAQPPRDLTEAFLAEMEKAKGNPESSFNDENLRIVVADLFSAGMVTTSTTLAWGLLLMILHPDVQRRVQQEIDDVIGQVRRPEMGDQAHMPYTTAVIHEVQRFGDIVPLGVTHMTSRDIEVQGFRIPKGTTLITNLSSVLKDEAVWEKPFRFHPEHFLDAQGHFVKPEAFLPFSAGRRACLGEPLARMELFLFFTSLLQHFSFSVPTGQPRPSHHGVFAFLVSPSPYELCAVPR

Row | Compound | Ki [5] | Ki [7] | Ki [8] | Ki [13] | EC50 [15] | Emax [16] | EC50 [18] | Emax [22] | further results
1 | C(=C1/CN2CCC1CC2)/c1cccnc1 |  |  |  |  |  |  |  |  | Ki [1]: 0.002 µM
2 | O=C(c1ccc(Cl)o1)N1CC2CNCC2C1 (stereo unspecified) [AZD1446] | > 10 µM | 6.7 µM | 0.034 µM | 0.03 µM | 70 µM | 10% |  |  | Ki [2]: 0.7 µM; %max (Rattus norvegicus [3]): 74%; inhibition [4]: 97%; Emax [6]: 120%; inhibition [9]: 87%; Activity [10]: inactive; inhibition (INH) (Cytochrome P450 2D6): Not Active; EC50 [11]: 4.9 µM; Activity (Rattus norvegicus [12]): Active; inhibition at 10 µM (hERG (KCNH2)): < 5%; Activity [14]: inactive
3 | O=C(c1ccc(Cl)o1)N1CC2CNCC(C2)C1 | 6.4 µM | > 10 µM | 0.007 µM | 0.005 µM | 15 µM | 61% | 1.4 µM | 47% | Activity [10]: inactive; inhibition [17]: 40%; inhibition (INH) (Cytochrome P450 2D6): Not Active; Activity (Rattus norvegicus [19]): Active; inhibition at 10 µM (hERG (KCNH2)): < 5%; %max (Rattus norvegicus [20]): 75%; Activity [14]: inactive; inhibition [21]: 35%
4 | c1cncc(N2CC3CNCC(C3)C2)c1 |  |  |  |  |  |  |  |  | Ki [23]: 0.0002 µM
5 | O=C(c1occc1Cl)N1CC2CNCC(C2)C1 | 8.7 µM | > 10 µM | 0.12 µM | 0.015 µM | 28 µM | 26% | 76 µM | 3% | 
6 | CN[C@@H](C)C/C=C/c1cccnc1 |  |  |  |  |  |  |  |  | Ki [23]: 0.024 µM
7 | O=C(c1ccc(Br)o1)N1CC2CNCC(C2)C1 | 6.5 µM | > 10 µM | 0.1 µM | 0.026 µM | 30 µM | 28% | 8.3 µM | 23% | 
8 | O=C(c1ccc(F)o1)N1CC2CNCC(C2)C1 | 1.1 µM | 4.7 µM | 0.015 µM | 0.003 µM | 9.1 µM | 110% | 0.3 µM | 73% | 
9 | CC(=O)/C=C1\CN2CCC1CC2 |  |  |  |  |  |  |  |  | Ki [24]: 0.013 µM
10 | N#Cc1ccoc1C(=O)N1CC2CNCC(C2)C1 | > 10 µM | > 10 µM | 0.28 µM | 0.039 µM | 21 µM | 16% | 26 µM | 8% | 
11 | Cc1ccc(C(=O)N2CC3CNCC(C3)C2)o1 | > 10 µM | > 10 µM | 0.24 µM | 0.046 µM | 37 µM | 11% | 8.5 µM | 19% | 
12 | CCOc1cncc(/C=C/CCNC)c1 |  | 71 µM | 0.006 µM | 0.012 µM | 20 µM | 10% |  |  | Emax [6]: 57%; EC50 [11]: 0.17 µM; Ki [25]: 7 µM
13 | C1=C(c2cccnc2)C2CCC(CC1)N2 (stereo unspecified) |  |  |  |  |  |  |  |  | Ki [23]: 0.00027 µM
14 | CN1CCC=C(c2ccc(Cl)nc2)C1 |  |  |  |  |  |  |  |  | Ki [23]: 0.0022 µM
15 | O=C(c1ccc(Oc2ccccc2)cc1)N1CC2CNCC2C1 (stereo unspecified) | 14 µM | 13 µM | 0.039 µM | 0.019 µM | 25 µM | 12% |  |  | Emax [6]: 9%; EC50 [11]: 51 µM; IC50 [26]: 7.8 µM; Imax [27]: 94%
16 | O=C(c1cc(Br)co1)N1CC2CNCC(C2)C1 | 9.3 µM | > 10 µM | 0.057 µM | 0.003 µM | 50 µM | 13% | 18 µM | 34% | 
17 | CCC(=O)C1=CCCN(C)C1 [ARECOLON] |  |  |  |  |  |  |  |  | Ki [23]: 0.0058 µM
